Molecular target: T1, rat and human TRPV2 chimera HRR (Rattus norvegicus, UniProt Q9WUD2, A110E/A257S/D189N/D73N/DEL322-322/DEL56-59/DEL67-67/E160D/E240Q/E289D/E384A/E71D/E91D/F161Y/G295D/H202G/H269S/H293L/I268T/K144R/K150Q/K353E/K51R/L151P/L192A/L245Q/L96P/M137L/M277A/N102T/N368H/N45K/N63G/P261A/P325H/P38Q/P60Y/P61R/Q129K/Q163R/Q324S/Q70P/R100S/R388L/R392K/R41G/S264I/S291R/S346A/S391P/S46F/S47A/S65G/S82N/T227S/T93A/V390I/V83A/W101K/W351C/Y323L)
T1 construct: expressed in transfected cells; host or cells: HEK293, transient, pCI-neo
T1 sequence (Q9WUD2 with tags, fused parts or gaps P38Q/R41G/N45K/S46F/S47A/K51R/DEL56-59/P60Y/P61R/N63G/S65G/DEL67-67/Q70P/E71D/D73N/S82N/V83A/E91D/T93A/L96P/R100S/W101K/N102T/A110E/Q129K/M137L/K144R/K150Q/L151P/E160D/F161Y/Q163R/D189N/L192A/H202G/T227S/E240Q/L245Q/A257S/P261A/S264I/I268T/H269S/M277A/E289D/S291R/H293L/G295D/DEL322-322/Y323L/Q324S/P325H/S346A/W351C/K353E/N368H/E384A/R388L/V390I/S391P/R392K): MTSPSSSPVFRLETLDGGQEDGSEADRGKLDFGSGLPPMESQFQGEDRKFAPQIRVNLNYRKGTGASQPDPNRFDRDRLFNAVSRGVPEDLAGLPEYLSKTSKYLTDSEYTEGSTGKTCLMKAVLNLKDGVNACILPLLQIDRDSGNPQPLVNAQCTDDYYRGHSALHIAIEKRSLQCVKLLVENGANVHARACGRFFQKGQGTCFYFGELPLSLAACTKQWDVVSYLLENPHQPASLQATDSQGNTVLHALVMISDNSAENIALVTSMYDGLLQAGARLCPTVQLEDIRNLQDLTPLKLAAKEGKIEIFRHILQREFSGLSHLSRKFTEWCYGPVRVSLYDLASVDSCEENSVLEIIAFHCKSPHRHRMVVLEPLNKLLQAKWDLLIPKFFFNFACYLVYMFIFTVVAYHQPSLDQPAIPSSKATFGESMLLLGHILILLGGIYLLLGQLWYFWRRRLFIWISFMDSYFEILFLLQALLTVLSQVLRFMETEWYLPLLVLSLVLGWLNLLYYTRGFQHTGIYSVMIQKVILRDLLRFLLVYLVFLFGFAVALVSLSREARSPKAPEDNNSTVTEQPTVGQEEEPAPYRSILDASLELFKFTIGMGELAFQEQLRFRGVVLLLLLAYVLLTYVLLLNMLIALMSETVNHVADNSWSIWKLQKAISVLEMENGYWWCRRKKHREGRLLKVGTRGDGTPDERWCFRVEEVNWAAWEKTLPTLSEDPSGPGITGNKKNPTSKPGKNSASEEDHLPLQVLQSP
Test: Calcium mobilization in HEK293 cells expressing TRPV2 chimera HRR
Type: cell-based
Conditions: expressed separately in HEK cells
Procedure: The deletion mutant constructs were then transfected into HEK293 cells using Fugene 6 reagent (Roche) as per the manufacturer's instructions. At 24 hours post-transfection, the cells were harvested and replated in fresh DMEM medium supplemented with 10% fetal bovine serum, 100 units/ml penicillin, and 100 μg/ml streptomycin. The cells were distributed onto poly-D-Lysine coated 96-or 384-well plates at a density of approximately 40,000 and 10,000 cells per well, respectively. At approximately 48 hours post-transfection, the medium was removed from the assay plate and replaced with Calcium 3 Dye Buffer (Molecular Devices) using the protocol available from the manufacturer. Calcium mobilization was triggered using Δ^9-THC or 2-APB or elevated temperature buffer and measured using either FLIPR or FLEX STATION instruments.
Based on the predicted topology and primary sequence features of TRPV2, TRPV2 are divided into 3 major domains: 1) the amino-terminal intracellular domain; 2) the transmembrane domain; and 3) the carboxyl-terminal intracellular domain. For a chimera, each domain can be of rat (R) or human (H) origin. Three rat and human TRPV2 chimera were constructed and tested herein. RRH (SEQ ID NO:15) was a chimera comprising rat 1-392 aa, rat 393-646 aa, and human 647-764 aa. RHR (SEQ ID NO:16) was a chimera comprising rat 1-392, human 391-646, and rat 647-761. […]

In the case of Delta-9-tetrahydrocannabinol [Δ^9-THC], the “response of chimera HRR to the compound” value is reported as “not active”.
